Reference: article PMC7570844, “Skin Damages—Structure Activity Relationship of Benzimidazole Derivatives Bearing a 5-Membered Ring System” (Molecules, 2020)
Converted amounts (≈) assume the structure as drawn. “And” between values parts separate entries of the source, which are not always exact repeats. Equal entries are not always repeated. Where two headings read alike, the source gives them in different places.

Experiments:
Microsporum gypseum = assay: Antidermatophyte plaque growth inhibition; type: cell-based; conditions: Nannizzia gypsea; for inhibition at 100 µg/mL: read-out: Percent growth inhibition
Microsporum canis = assay: Antidermatophyte plaque growth inhibition; type: cell-based; conditions: for inhibition at 100 µg/mL: read-out: Percent growth inhibition
[1] = system: Trichophyton mentagrophytes; assay: Antidermatophyte plaque growth inhibition; type: cell-based; conditions: for inhibition at 100 µg/mL: read-out: Percent growth inhibition
Trichophyton tonsurans = assay: Antidermatophyte plaque growth inhibition; type: cell-based; conditions: for inhibition at 100 µg/mL: read-out: Percent growth inhibition
Epidermophyton floccosum = assay: Antidermatophyte plaque growth inhibition; type: cell-based; conditions: for inhibition at 100 µg/mL: read-out: Percent growth inhibition
[2] = system: M. gypseum, M. canis, T. mentagrophytes, T. tonsurans and E. floccosum; assay: Antidermatophyte activity, all five dermatophytes taken together; type: cell-based; conditions: for inhibition at 100 µg/mL: read-out: Percentage of growth inhibition over the five dermatophytes
[3] = system: herpes simplex virus-1 (KOS); assay: Antiviral activity in HEL cell cultures (CPE, MTS); type: cell-based; conditions: Human alphaherpesvirus 1, HEL cells
[4] = system: herpes simplex virus-2 (G); assay: Antiviral activity in HEL cell cultures (CPE, MTS); type: cell-based; conditions: Human alphaherpesvirus 2; Herpes simplex virus-2, HEL cells
[5] = system: herpes simplex virus-1 TK-KOS ACVr; assay: microbe, parasite or virus in culture; type: cell-based; conditions: Human alphaherpesvirus 1, HEL, read-out: Antiviral EC50
vaccinia virus = assay: microbe, parasite or virus in culture; type: cell-based; conditions: Orthopoxvirus vaccinia, HEL, read-out: Antiviral EC50
Adeno virus-2 = assay: Antiviral activity in HEL cell cultures (CPE, MTS); type: cell-based; conditions: Adeno virus-2, HEL cells
Human Coronavirus (229E) = assay: microbe, parasite or virus in culture; type: cell-based; conditions: HEL, read-out: Antiviral EC50
[6] = system: vesicular stomatitis virus; assay: microbe, parasite or virus in culture; type: cell-based; conditions: HeLa, read-out: Antiviral EC50
Coxsackie virus B4 = assay: Antiviral activity in HeLa cell cultures (CPE, MTS); type: cell-based; conditions: Enterovirus B; Coxsackie virus B4, HeLa cells
[7] = system: Respiratory syncytial virus; assay: microbe, parasite or virus in culture; type: cell-based; conditions: human respiratory syncytial virus, HeLa cells, read-out: Antiviral EC50
[8] = system: human embryonic lung (HEL) cell cultures
HeLa cell cultures = conditions: human
[9] = DPPH radical scavenging test; conditions: mean ± SEM; for DPPH (% Inhibition): tested at 1 mg/mL
[10] = system: human T-lymphocyte cells (CEM); assay: Cell proliferation inhibition
[11] = system: human cervical carcinoma cells (HeLa); assay: Cell proliferation inhibition
[12] = system: human pancreatic carcinoma cells (Mia Paca-2); assay: Cell proliferation inhibition
[13] = system: human melanoma cells (SK-Mel 5); assay: Cell proliferation inhibition
[14] = Ferric reducing antioxidant power (FRAP) test; conditions: mean ± SEM
[15] = system: Candida albicans (ATCC 10231); assay: Anti-Candida albicans broth microdilution MIC; conditions: Candida albicans, ATCC10231, 24 h
[16] = system: HEK293T (Normal Kidney Epithelial Cells); assay: Cell proliferation inhibition, non-cancer control cells; conditions: Homo sapiens, HEK-293T
[17] = UV filtering parameters of compounds in solution (MeOH, 290-400 nm)
[18] = UV filtering parameters of cosmetic formulation on PMMA plates (modified Diffey-Robson); type: physicochemical
[19] = Photostability of formulations, solar simulator; conditions: formulation on PMMA plates
[20] = M. gypseum, 100 µg/mL, '+' has no key
[21] = M. canis, 100 µg/mL, '+' has no key
[22] = T. mentagrophytes, 100 µg/mL, '+' has no key
[23] = T. tonsurans, 100 µg/mL, '+' has no key
[24] = E. floccosum, 100 µg/mL, '+' has no key
[25] = 100 µg/mL, all five dermatophytes
[26] = after solar simulator irradiation

Compound `O=S(=O)(O)c1ccc2[nH]c(-c3ccc[nH]3)nc2c1` [Compound 7, 2-(1H-pyrrol-2-yl)-1H-benzimidazole-5-sulfonic Acid] has an inhibition at 100 µg/mL (Microsporum gypseum; [20]) of 73 ± 3.67%, an inhibition at 100 µg/mL (Microsporum canis; [21]) of 72.1 ± 7.51% and an inhibition at 100 µg/mL [1, 22] of 69 ± 1.84%. It also gave an inhibition at 100 µg/mL (Trichophyton tonsurans; [23]) of 56.6 ± 4.04%, an inhibition at 100 µg/mL (Epidermophyton floccosum; [24]) of 52.5 ± 6.58% and an inhibition at 100 µg/mL [2, 25] of 50 to 79%. The EC50 [3] was > 100 µM, the EC50 [4] was > 100 µM and the EC50 [5] was > 100 µM. For the same compound, the EC50 (vaccinia virus) was > 100 µM, the EC50 (Adeno virus-2) was > 100 µM and the EC50 (Human Coronavirus (229E)) was > 100 µM. For the same compound, the EC50 [6] was > 100 µM, the EC50 (Coxsackie virus B4) was > 100 µM and the EC50 [7] was > 100 µM. For the same compound, the melting point was > 250 °C, the Cytotoxic concentration [8] was > 100 µM and the Cytotoxic concentration (HeLa cell cultures) was > 100 µM. The “DPPH IC50” value [9] was 1093.09 ± 8.65 µg/mL, the IC50 [10] was 31 ± 21 µM and the IC50 [11] was > 100 µM. The IC50 [12] was 28 ± 10 µM, the IC50 [13] was > 100 µM and the FRAP [14] was 239.91 ± 1.79 µmolTE/g. For the same compound, the MIC [15] was 64 µg/mL (≈ 243 µM), the IC50 [16] was 67 ± 47 µM and the SPF [17] was 5.43±0.39. The UVA/UVB [17] was 0.2, the UVAPF [17] was 1.22±0.03 and the “λc (critical wavelength)” value [17] was 345 nm.
`O=S(=O)(O)c1ccc2[nH]c(-c3cccs3)nc2c1` [Compound 9, 2-(thiophen-2-yl)-1H-benzimidazole-5-sulfonic Acid] showed an inhibition at 100 µg/mL (Microsporum gypseum; [20]) of 59.8 ± 6.12%, an inhibition at 100 µg/mL (Microsporum canis; [21]) of 65.9 ± 3.21% and an inhibition at 100 µg/mL [1, 22] of 57.3 ± 1.09%. For the same compound, the inhibition at 100 µg/mL (Trichophyton tonsurans; [23]) was 50.8 ± 2.11%, the inhibition at 100 µg/mL (Epidermophyton floccosum; [24]) was 50 ± 3.26% and the inhibition at 100 µg/mL [2, 25] was 50 to 79%. For the same compound, the EC50 [3] was > 100 µM, the EC50 [4] was > 100 µM and the EC50 [5] was > 100 µM. For the same compound, the EC50 (vaccinia virus) was > 100 µM, the EC50 (Adeno virus-2) was > 100 µM and the EC50 (Human Coronavirus (229E)) was > 100 µM. For the same compound, the EC50 [6] was > 100 µM, the EC50 (Coxsackie virus B4) was > 100 µM and the EC50 [7] was > 100 µM. The melting point was > 250 °C, the Cytotoxic concentration [8] was > 100 µM and the Cytotoxic concentration (HeLa cell cultures) was > 100 µM. For the same compound, the “DPPH (% Inhibition)” value [9] was 12.52 ± 0.88%, the IC50 [10] was 34 ± 2 µM and the IC50 [11] was > 100 µM. The IC50 [12] was 43 ± 14 µM, the IC50 [13] was > 100 µM and the FRAP [14] was 82.16 ± 0.22 µmolTE/g. The MIC [15] was 64 µg/mL (≈ 228 µM), the IC50 [16] was > 100 µM and the SPF [17] was 4.72±0.17. For the same compound, the UVA/UVB [17] was 0.48, the UVAPF [17] was 1.43±0.09 and the “λc (critical wavelength)” value [17] was 339 nm.
`c1coc(-c2nc3ccccc3[nH]2)c1` [Compound 11, 2-(furan-2-yl)-1H-benzimidazole] gave an SPF ([18]; 1% in formulation) of 6.84, a UVA/UVB ([18]; 1% in formulation) of 0.69 and a UVAPF ([18]; 1% in formulation) of 1.94. It also gave a λc ([18]; 1% in formulation) of 368 nm, an SPF ([18]; 2% in formulation) of 10.39 and a UVA/UVB ([18]; 2% in formulation) of 0.13. For the same compound, the UVAPF ([18]; 2% in formulation) was 1.53, the λc ([18]; 2% in formulation) was 366 nm and the SPF ([18]; 3% in formulation) was 11.15. It also gave a UVA/UVB ([18]; 3% in formulation) of 0.18, a UVAPF ([18]; 3% in formulation) of 1.82 and a λc ([18]; 3% in formulation) of 371 nm. For the same compound, the IC50 (Microsporum gypseum) was 1.54 ± 0.02 µg/mL (≈ 8.36 µM), the inhibition at 100 µg/mL (Microsporum gypseum) was 99 ± 0.28% and the IC50 (Microsporum canis) was 1.58 ± 0.06 µg/mL (≈ 8.58 µM). The inhibition at 100 µg/mL (Microsporum canis) was 98.3 ± 2.03%, the IC50 [1] was 1.61 ± 0.1 µg/mL (≈ 8.74 µM) and the inhibition at 100 µg/mL [1] was 97.2 ± 4.53%. It also gave an IC50 (Trichophyton tonsurans) of 1.89 ± 0.22 µg/mL (≈ 10.3 µM), an inhibition at 100 µg/mL (Trichophyton tonsurans) of 94.7 ± 5.63% and an IC50 (Epidermophyton floccosum) of 2.44 ± 0.05 µg/mL (≈ 13.2 µM). The inhibition at 100 µg/mL (Epidermophyton floccosum) was 97.9 ± 4.23%, the “Activity on dermatophytes (in words)” value ([2]; 100 µg/mL) was “fungicide activity” and the IC50 ([2]; read-out: IC50 range over the five dermatophytes) was 0.97 to 3.8 µg/mL (≈ 5.27 to 20.6 µM). For the same compound, the inhibition at 100 µg/mL [2] was ~100%, the EC50 [3] was > 100 µM and the EC50 [4] was > 100 µM. For the same compound, the EC50 [5] was > 100 µM, the EC50 (vaccinia virus) was > 100 µM and the EC50 (Adeno virus-2) was > 100 µM. For the same compound, the EC50 (Human Coronavirus (229E)) was > 100 µM, the EC50 [6] was > 100 µM and the EC50 (Coxsackie virus B4) was > 100 µM. For the same compound, the EC50 [7] was > 100 µM, the Cytotoxic concentration [8] was > 100 µM and the Cytotoxic concentration (HeLa cell cultures) was > 100 µM. The “DPPH (% Inhibition)” value [9] was 15.46 ± 0.98%, the IC50 [10] was > 100 µM and the IC50 [11] was > 100 µM. The IC50 [12] was > 100 µM, the IC50 [13] was > 100 µM and the FRAP [14] was 4462.64 µmolTE/g and 4462.64 ± 18.29 µmolTE/g. The “% SPFeff (residual in vitro SPF after irradiation)” value [19, 26] was “less than 80%”, the “% UVA-PFeff (residual UVA-PF after irradiation)” value [19, 26] was “less than 80%” and the “Photostability (in words)” value ([19]; irradiated with solar simulator, photostable if % SPF and % PF-UVA at least 80%) was “photoinstable”. For the same compound, the IC50 [16] was > 100 µM, the SPF [17] was 20.06±3.04 and the UVA/UVB [17] was 0.3. For the same compound, the UVAPF [17] was 1.05±0.06 and the “λc (critical wavelength)” value [17] was 333 nm.
